Measurements from patent publication US20160143906A1, “EFFICACIOUS TREATMENT OF NSCLC AND PREDICTIVE CLINICAL MARKER OF THE RESPONSIVENESS OF A TUMOUR TO A TREATMENT” (Boehringer Ingelheim International GmbH, priority 2013, published 2016).
“Also recorded” adds a separate entry of the source. Read-outs that look alike come from different tables or passages of the source.

Legend:
[1] = tested on: NSCLC after fast progression on first-line platinum doublet chemotherapy; details: TITAN; fast progressing patients who failed during 1st line platinum containing therapy; cited from earlier work
[2] = tested on: tumors with activating EGFR mutations or the Alk translocation; details: monotherapy; non-squamous patients with activating EGFR mutations or Alk translocation; cited from earlier work
Caki-1 = test: in vivo anti-tumor efficacy, xenograft model Caki-1 (renal); details: 100 mg/kg/d
advanced NSCLC tumours = test: Phase 3 clinical study LUME LUNG 2 (nintedanib+pemetrexed vs placebo+pemetrexed); format: in vivo, human
Excerpt: Continuation until Progressive Disease (PD) or unacceptable toxicity with nintedanib, placebo, pemetrexed, or a combination thereof, was permitted. […] Primary endpoint was centrally assessed PFS. Secondary endpoints included OS, investigator-assessed PFS, Response Rate (RR), safety, and Quality of Life (QoL). Stepwise selection, using Cox proportional hazards modeling and a recursive partitioning tree, identified baseline variables prognostic for PFS in Arm B (placebo) of LUME LUNG 2. […] These methods were applied to the LUME LUNG 2 Data Monitoring Committee (DMC) dataset, to develop a hypothesis that was tested and validated by three steps: (i) internal confirmation using centrally assessed PFS and internal validation using OS data of the clinical trial LL2; (ii) external validation using the data from the primary analysis of the independent clinical trial LL1 (centrally assessed PFS and internal validation using OS data); and (iii) external validation using the final OS data of the clinical trial LL1.
(§1) In the case of a significant interaction between treatment and a continuous variable, not only the categorisation delivered by the recursive partitioning was investigated but hazard ratios HR (treatment effect) were also globally estimated at different values of the interacting covariate.
(§2) Kaplan-Meier plots and Forrest Plots were further used for the graphical presentation of the results.

[3] = tested on: locally advanced/metastatic NSCLC; test: Phase 3 clinical study LUME LUNG 1 (nintedanib+docetaxel vs placebo+docetaxel); format: in vivo, human
Excerpt: LUME LUNG 1 is a placebo-controlled phase 3 trial investigating nintedanib+docetaxel in patients with locally advanced/metastatic NSCLC progressing after one prior combination regimen.
as §1, §2

FaDu = test: in vivo anti-tumor efficacy, xenograft model FaDu (head and neck); details: 100 mg/kg/d
SKOV3 = test: in vivo anti-tumor efficacy, xenograft model SKOV3 (ovarian); details: 50 mg/kg/d
NSCLC = test: clinical trial evidence as summarised (progression within 9 months or less after initiation of prior treatment); format: in vivo, human
GS-9L syngeneic rat = test: in vivo anti-tumor efficacy, syngeneic rat tumor model GS-9L (glioblastoma); details: 50 mg/kg/d
HT-29 = test: in vivo anti-tumor efficacy, xenograft model HT-29 (colorectal)
Rip-Tag = test: in vivo anti-tumor efficacy, Rip-Tag model (pancreas, murine transgenic)
PAC-120 = test: in vivo anti-tumor efficacy, xenograft model PAC-120 (prostate, hormone-dependent); details: 100 mg/kg/d
Calu-6 = test: in vivo anti-tumor efficacy, xenograft model Calu-6 (lung, non-small-cell); details: 50 mg/kg/d
NCI-H460 = test: in vivo anti-tumor efficacy, xenograft model NCI-H460 (lung, non-small-cell); details: 25 mg/kg/d
[4] = LL1 squamous cell tumour histology
[5] = LL1 squamous cell, large tumour burden

Q: Which “efficacy in PFS and OS compared to docetaxel or pemetrexed” value [1] does the source give for `C#Cc1cccc(Nc2ncnc3cc(OCCOC)c(OCCOC)cc23)c1` [erlotinib] here?
A: The value was “did not show any superior efficacy”.

Q: And the OS improvement [2]?
A: The OS improvement was “no OS improvements have been observed”.

Q: And the “median PFS” value [2]?
A: The value was “around 20 months”.

Q: Which results are given for `COC(=O)c1ccc2c(c1)NC(=O)/C2=C(\Nc1ccc(N(C)C(=O)CN2CCN(C)CC2)cc1)c1ccccc1` [nintedanib, 3-Z-[1-(4-(N-((4-methyl-piperazin-1-yl)-methylcarbonyl)-N-methyl-amino)-anilino)-1-phenyl-methylene]-6-methoxycarbonyl-2-indolinone]?
A: T/C (reduction of tumor size in % of the control) (Caki-1): T/C 13% @ 100 mg/kg/d; safety (advanced NSCLC tumours; LL2): no safety issues were identified; median PFS (advanced NSCLC tumours; LL2 ITT analysis, centrally reviewed PFS): 4.4 months; Disease control (advanced NSCLC tumours; LL2 ITT, versus placebo): significantly improved; HR (OS) (advanced NSCLC tumours; LL2 adenocarcinoma, t<9 mo): 0.87; HR (PFS) (advanced NSCLC tumours; LL2 adenocarcinoma, t<9 mo): 0.79; HR (OS) (advanced NSCLC tumours; LL2 all): 1.01; HR (PFS) (advanced NSCLC tumours; LL2 all): 0.84; Improvement of median OS of nintedanib versus placebo (advanced NSCLC tumours; LL2 all): No difference; also recorded: None (OS); median improvement of time to deterioration of cough (advanced NSCLC tumours; LL2 fast progressing patients, nintedanib versus placebo): 3.7 months; median OS (advanced NSCLC tumours; LL2 t<9 mo patient population): 10.6 months; median PFS (advanced NSCLC tumours; LL2 t<9 mo patient population): 4.1 months; HR (OS) ([3]; LL1 adenocarcinoma): 0.83; HR (PFS) ([3]; LL1 adenocarcinoma): 0.84; benefit in fast progressing population with cut-off of 4 or 6 months ([3]; LL1 adenocarcinoma, t<4 mo or t<6 mo): confirmed; HR (OS) ([3]; LL1 adenocarcinoma, t<9 mo): 0.75; HR (PFS) ([3]; LL1 adenocarcinoma, t<9 mo): 0.68; HR (OS) ([3]; LL1 all NSCLC patients): 0.94; HR (PFS) ([3]; LL1 all NSCLC patients): 0.85; HR (OS) [3, 4]: 1.01; HR (PFS) [3, 4]: 0.83; Improvement of median OS of nintedanib versus placebo [3, 4]: No benefit; also recorded: None (OS); HR (OS) [3, 5]: 0.82; HR (PFS) [3, 5]: 0.71; Improvement of median PFS of nintedanib versus placebo [3, 5]: 0.9 months (PFS); median PFS ([3]; LL1 whole NSCLC patient population, centrally assessed): 3.5 months; T/C (reduction of tumor size in % of the control) (FaDu): T/C 11% @ 100 mg/kg/d; T/C (reduction of tumor size in % of the control) (SKOV3): T/C 19% @ 50 mg/kg/d; improvement in the median of both PFS and OS compared to placebo (NSCLC): superior or equal to one month; improvement in the median of both PFS and OS compared to placebo (NSCLC; adenocarcinoma NSCLC): ≥ 1.3 months; T/C (reduction of tumor size in % of the control) (GS-9L syngeneic rat): T/C 32% @ 50 mg/kg/d; T/C (reduction of tumor size in % of the control) (HT-29; HT-29, 100 mg/kg/d): T/C 16% @ 100 mg/kg/d; Efficacy (HT-29; HT-29 large tumors): tumor volume reduction; Efficacy (Rip-Tag): interference with tumor; T/C (reduction of tumor size in % of the control) (PAC-120): T/C 34% @ 100 mg/kg/d; T/C (reduction of tumor size in % of the control) (Calu-6): T/C 24% @ 50 mg/kg/d; T/C (reduction of tumor size in % of the control) (NCI-H460): T/C 54% @ 25 mg/kg/d
